Measurements taken from US20070060478A1, “Herbicidal mixtures comprising a safener” (BASF AKTIENGESELLSCHAFT, priority 2005, published 2007).

Key:
Format in all cases: in vivo
Settings in all cases: 50 g/ha, applied alone
[1] = test system: spring wheat; assay: post-emergence application, damage to crop plants (damage scale 0% to 100%)
From the text: (§1) The mixtures according to the invention were applied pre- or post-emergence (foliar treatment). The herbicidal compounds of component B) and of component C) were applied in the formulation in which they are present as commercially available product.
(§2) In the case of the field trials, application was effected with the aid of a mobile plot sprayer.
(§3) The test period extended over 3 to 8 weeks, and the stands were also observed at later points in time.
(§4) Damage by the herbicidal compositions was evaluated with reference to a scale of 0% to 100% in comparison with untreated control plots. 0 means no damage and 100 means complete destruction of the plants.

[2] = test system: wild oat; assay: post-emergence application, control of unwanted plants (damage scale 0% to 100%)
From the text: as §1, §2, §3, §4

[3] = test system: green foxtail; assay: as above
From the text: as §1, §2, §3, §4

[4] = test system: pigweed; assay: as above
From the text: as §1, §2, §3, §4

[5] = test system: durum wheat; assay: post-emergence application, damage to crop plants (damage scale 0% to 100%)
From the text: as §1, §2, §3, §4

In the case of `Cc1c(C(=O)c2cnn(C)c2O)ccc(S(C)(=O)=O)c1C1=NOCC1` [4-[2-methyl-3-(4,5-dihydro-isoxazol-3-yl)-4-methylsulfonyl-benzoyl]-1-methyl-5-hydroxy-1H-pyrazole], the “damages in crop plants” value [1] is reported as “causes damages”, the “control of unwanted plants” value [2] is reported as “in an excellent manner” and the “control of unwanted plants” value [3] is reported as “in an excellent manner”. The “control of unwanted plants” value [4] was “in an excellent manner” and the “damages in crop plants” value [5] was “causes damages”.
